Laboratory results: ChEMBL document CHEMBL1201862, “PubChem BioAssay data set” (2004)
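Five compound concentrations were applied to cells in 96-well plates for 48 hours; endpoints were derived by simple linear interpolation of the resulting dose-response curve. GI50 is the concentration that inhibits growth by half.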 Calls of active or inactive are those of the source. Cut-off read from the data, not from the text of the source: active = GI50 up to about 1.1 µM and inactive = higher. Where a SMILES comes first, the peptide text is derived from it. The star is where a group is joined. Fmoc = O=C(OCC1c2ccccc2-c2ccccc21)*; OtBu = CC(C)(C)O*

Tests used:
Experiment in all cases: inhibition of tumour cell growth, NCI panel, 48 h
786-0 = test system: 786-0
A498 = test system: A498
CCRF-CEM = test system: CCRF-CEM
DU-145 = test system: DU-145
HOP-62 = test system: HOP-62
MCF7 = test system: MCF7
MDA-MB-231 = test system: MDA-MB-231
MDA-N = test system: MDA-N
MOLT-4 = test system: MOLT-4
NCI-H226 = test system: NCI-H226
NCI-H23 = test system: NCI-H23
SF-268 = test system: SF-268
SK-MEL-2 = test system: SK-MEL-2
SR = test system: SR
TK-10 = test system: TK-10
U-251 = test system: U-251
UO-31 = test system: UO-31
HOP-92 = test system: HOP-92
Malme-3M = test system: Malme-3M

Row | SMILES | GI50 (786-0) | GI50 (A498) | GI50 (CCRF-CEM) | GI50 (DU-145) | GI50 (HOP-62) | GI50 (MCF7) | GI50 (MDA-MB-231) | GI50 (MDA-N) | GI50 (MOLT-4) | GI50 (NCI-H226) | GI50 (NCI-H23) | GI50 (SF-268) | GI50 (SK-MEL-2) | GI50 (SR) | GI50 (TK-10) | GI50 (U-251) | GI50 (UO-31) | GI50 (HOP-92) | GI50 (Malme-3M)
1 | Cc1cc(S(=O)(=O)[N-]/C(=N/S(=O)(=O)c2cc(Cl)sc2Cl)[n+]2ccc(N(C)C)cc2)c(S)cc1Cl | 68.2 µM (inactive) | 26.7 µM (inactive) | 64 µM (inactive) | 39.4 µM (inactive) | 42.3 µM (inactive) | 84.7 µM (inactive) | 77.3 µM (inactive) | 34 µM (inactive) | 84.3 µM (inactive) | 39.3 µM (inactive) | 34.9 µM (inactive) | 40.1 µM (inactive) | 50.4 µM (inactive) | 39.4 µM (inactive) | 49.7 µM (inactive) | 45.2 µM (inactive) | 23.2 µM (inactive) | – | –
2 | Oc1cc(-c2cccc(Cl)c2)nc2ncccc12 | 0.249 µM (active) | 0.53 µM (active) | 0.0689 µM (active) | 0.644 µM (active) | 0.253 µM (active) | 0.122 µM (active) | 0.57 µM (active) | 0.0132 µM (active) | 0.0545 µM (active) | 0.378 µM (active) | 1.54 µM (inactive) | 5.53 µM (inactive) | 0.197 µM (active) | 0.0378 µM (active) | 24.3 µM (inactive) | 0.106 µM (active) | 2.52 µM (inactive) | 21 µM (inactive) | 0.139 µM (active)
3 | CC(C)/C(Cl)=N/OC(=O)Nc1ccc(Cl)c(Cl)c1 | 1.96 µM (inactive) | 18 µM (inactive) | 0.851 µM (active) | 18.1 µM (inactive) | 18.2 µM (inactive) | 9.93 µM (inactive) | 14.9 µM (inactive) | 3.59 µM (inactive) | 2.49 µM (inactive) | 18.1 µM (inactive) | 15.3 µM (inactive) | 18.2 µM (inactive) | 18.4 µM (inactive) | 2.49 µM (inactive) | 5.86 µM (inactive) | 21.2 µM (inactive) | 15.3 µM (inactive) | 1.72 µM (inactive) | 2.16 µM (inactive)
4 | Cc1cc(C(=O)CSC(=S)SC(C)(C)C)ccc1Cl | 22.3 µM (inactive) | 16.3 µM (inactive) | – | 26.5 µM (inactive) | 17.4 µM (inactive) | 25.6 µM (inactive) | 19.7 µM (inactive) | 15.8 µM (inactive) | 13.8 µM (inactive) | 27 µM (inactive) | 29.5 µM (inactive) | 18.2 µM (inactive) | 19.9 µM (inactive) | 16.9 µM (inactive) | 25.2 µM (inactive) | 15.1 µM (inactive) | 18.1 µM (inactive) | 24.8 µM (inactive) | 16.8 µM (inactive)
5 | CN(C)CCCN1c2ccccc2Sc2ccc3ccccc3c21 | 11 µM (inactive) | 5.71 µM (inactive) | 2.23 µM (inactive) | 12.8 µM (inactive) | 12 µM (inactive) | 5.75 µM (inactive) | 3.15 µM (inactive) | 4.12 µM (inactive) | 2.92 µM (inactive) | 6.58 µM (inactive) | 14.3 µM (inactive) | 9.06 µM (inactive) | 5.79 µM (inactive) | 1.09 µM (active) | 4.45 µM (inactive) | 7.23 µM (inactive) | 4.36 µM (inactive) | 5.52 µM (inactive) | 6.49 µM (inactive)
6 | COC(=O)c1cc2cc3c(c(O)c2c(=O)o1)O[C@@]1(Oc2c(O)c4c(c(O)c2[C@H]1OC1CC(OC)C(O)C(C)O1)C(=O)C=C(OC)C4=O)[C@H](O)C3 (stereo partly drawn) | 0.991 µM (active) | 0.789 µM (active) | 0.889 µM (active) | 0.822 µM (active) | 1.14 µM (inactive) | 1.14 µM (inactive) | 1.27 µM (inactive) | 1.22 µM (inactive) | 0.748 µM (active) | 1.32 µM (inactive) | 0.94 µM (active) | 0.986 µM (active) | 1.53 µM (inactive) | 0.458 µM (active) | 2.07 µM (inactive) | 0.785 µM (active) | 1.37 µM (inactive) | 2.41 µM (inactive) | 1.28 µM (inactive)
7 | Nc1nc(SCc2ccccc2)c2ncn(Cc3ccccc3)c2n1 | > 100 µM (inactive) | > 44.9 µM (inactive) | – | > 100 µM (inactive) | > 100 µM (inactive) | > 90.8 µM (inactive) | > 100 µM (inactive) | > 100 µM (inactive) | > 100 µM (inactive) | > 100 µM (inactive) | > 67.8 µM (inactive) | > 84.7 µM (inactive) | > 58.1 µM (inactive) | > 56.9 µM (inactive) | > 100 µM (inactive) | > 100 µM (inactive) | > 100 µM (inactive) | > 85.9 µM (inactive) | > 57.9 µM (inactive)
8 | CSc1nn(C)cc2nc(C)nc1-2 | > 100 µM (inactive) | > 100 µM (inactive) | > 100 µM (inactive) | > 100 µM (inactive) | > 100 µM (inactive) | > 100 µM (inactive) | > 100 µM (inactive) | > 100 µM (inactive) | > 100 µM (inactive) | > 100 µM (inactive) | > 100 µM (inactive) | > 100 µM (inactive) | > 100 µM (inactive) | > 100 µM (inactive) | > 100 µM (inactive) | > 100 µM (inactive) | > 100 µM (inactive) | – | –
9 | CCN1CCCCC(=N\O)/C(=N/O)CCCC1 | > 100 µM (inactive) | > 100 µM (inactive) | > 100 µM (inactive) | > 100 µM (inactive) | > 100 µM (inactive) | > 100 µM (inactive) | > 100 µM (inactive) | > 100 µM (inactive) | > 100 µM (inactive) | > 100 µM (inactive) | > 100 µM (inactive) | > 100 µM (inactive) | > 100 µM (inactive) | > 100 µM (inactive) | > 100 µM (inactive) | > 100 µM (inactive) | > 100 µM (inactive) | > 100 µM (inactive) | > 100 µM (inactive)
10 | CC(C)=CCNc1ncnc2c1ncn2CCC(=O)O | > 100 µM (inactive) | > 100 µM (inactive) | > 100 µM (inactive) | > 100 µM (inactive) | > 100 µM (inactive) | > 100 µM (inactive) | > 100 µM (inactive) | > 100 µM (inactive) | > 100 µM (inactive) | > 100 µM (inactive) | > 100 µM (inactive) | > 100 µM (inactive) | – | > 100 µM (inactive) | > 100 µM (inactive) | > 100 µM (inactive) | > 100 µM (inactive) | > 100 µM (inactive) | > 100 µM (inactive)
11 | CC(C)C(NC(=O)OCC1c2ccccc2-c2ccccc21)C(=O)NC(CCC(=O)OC(C)(C)C)C(=O)OC(C)(C)C (stereo not drawn) (Fmoc-Val-Glu(OtBu)-OtBu; configuration not given here) | > 100 µM (inactive) | 58.5 µM (inactive) | > 100 µM (inactive) | > 100 µM (inactive) | > 93.1 µM (inactive) | > 76.4 µM (inactive) | 19.3 µM (inactive) | > 100 µM (inactive) | 4.21 µM (inactive) | > 100 µM (inactive) | 14.9 µM (inactive) | > 87.3 µM (inactive) | – | 3.29 µM (inactive) | > 100 µM (inactive) | 7.59 µM (inactive) | > 56.2 µM (inactive) | > 42 µM (inactive) | > 100 µM (inactive)
12 | Cn1cnc([N+](=O)[O-])c1SCC(=O)O | > 100 µM (inactive) | > 100 µM (inactive) | > 100 µM (inactive) | > 100 µM (inactive) | > 100 µM (inactive) | > 100 µM (inactive) | > 100 µM (inactive) | > 100 µM (inactive) | – | > 100 µM (inactive) | > 100 µM (inactive) | > 100 µM (inactive) | > 100 µM (inactive) | > 100 µM (inactive) | > 100 µM (inactive) | > 100 µM (inactive) | > 100 µM (inactive) | > 100 µM (inactive) | > 100 µM (inactive)
13 | O=C1CSc2nnc(CCCCCCCCc3nnc4n3NC(=O)CS4)n2N1 | 32.6 µM (inactive) | > 100 µM (inactive) | 15.3 µM (inactive) | > 100 µM (inactive) | 46 µM (inactive) | 45.6 µM (inactive) | 69.3 µM (inactive) | > 100 µM (inactive) | 31.3 µM (inactive) | > 100 µM (inactive) | > 100 µM (inactive) | 43.3 µM (inactive) | > 100 µM (inactive) | 30.8 µM (inactive) | – | 35.4 µM (inactive) | > 100 µM (inactive) | 82 µM (inactive) | 31.9 µM (inactive)
14 | N#CC1C(=O)SC2c3ccccc3C(=O)c3ccccc3C12 (stereo not drawn) | > 10 µM (inactive) | > 10 µM (inactive) | > 10 µM (inactive) | > 10 µM (inactive) | > 10 µM (inactive) | > 10 µM (inactive) | > 10 µM (inactive) | > 10 µM (inactive) | > 10 µM (inactive) | > 10 µM (inactive) | > 10 µM (inactive) | > 10 µM (inactive) | > 10 µM (inactive) | > 10 µM (inactive) | > 10 µM (inactive) | > 10 µM (inactive) | > 10 µM (inactive) | – | > 10 µM (inactive)
15 | N#CC(C#N)C1CN2CCC1CC2 (stereo not drawn) | > 100 µM (inactive) | > 100 µM (inactive) | > 100 µM (inactive) | > 100 µM (inactive) | > 100 µM (inactive) | > 100 µM (inactive) | > 100 µM (inactive) | > 100 µM (inactive) | > 100 µM (inactive) | > 100 µM (inactive) | > 100 µM (inactive) | > 100 µM (inactive) | > 100 µM (inactive) | > 100 µM (inactive) | > 100 µM (inactive) | > 100 µM (inactive) | > 100 µM (inactive) | – | > 100 µM (inactive)
